The values that follow are results of earlier work, collected in patent US20100151020A1, “DRUG […] SYSTEM FOR ZERO ORDER, ZERO ORDER BIPHASIC, ASCENDING OR […] […] OF METHYLPHENIDATE” (priority 2008, published 2010).

Where a name gives a salt, the structure may show the parent alone. Read-outs that look alike come from different tables or passages of the source.

The conditions of series [1]: reports.
The conditions of series [2]: chronic methylphenidate dosing.

As for `COC(=O)C(c1ccccc1)C1CCCCN1` (stereo not shown) [methylphenidate HCl], in series [1], the “AD/HD patients responding positively” value is recorded as 70-90%. Further, the primary adverse events entry in series [2] is “nervousness, insomnia, and appetite suppression”. Besides, the drug excreted (adults) is 80%. In addition, where the note is “children”, the drug excreted is on record as 67%. For the setting “children, immediate release”, the time to peak is 1.9 h and the “time to peak, range” value is 0.3 to 4.4 h. In addition, for the setting “immediate release”, the pharmacokinetic half-life was 2 to 3 h.
